Drawing on patent US11834453B2, “Substituted pyrimido[5,4-d]pyrimidines as HER2 inhibitors” (Array BioPharma Inc., priority 2020, dated 2023), this text covers IC50 for 29 compounds.

In general, IC50 refers to the concentration at which inhibition is half-maximal.

Assay [1] concerns the target ErbB2 insYVMA (HER2-YVMA, SEQ ID NO: 2) (Homo sapiens, UniProt P04626, INS775YVMA/P1170A). Nature of the assay: biochemical. Particulars: ErbB2 insYVMA enzyme assay; read-out: Assay 1 IC50.
The next assay concerns the target ErbB2 WT (Homo sapiens (Human), UniProt P04626). Nature of the assay: ErbB enzyme assay (CisBio HTRF KinEASE-TK), Assay 2. It counts as biochemical. The procedure, abridged:
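ErbB2 phosphorylates 250 nM biotin-TK substrate at 1 mM ATP in 25 mM HEPES pH 7.4, 10 mM MgCl2, 0.01% Triton X-100 and 2% DMSO, for 30 min at 22 °C. Product is detected by HTRF with Sa-XL665 and TK-Ab-Cryptate. Percent of control is set by DMSO-only wells and pre-quenched wells.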
A general note: In TR-FRET formats the signal depends on donor and acceptor labels being close together.

The target in another assay is EGFR (Homo sapiens (Human), UniProt P00533). Nature of the assay: ErbB enzyme assay (CisBio HTRF KinEASE-TK), Assay 3. It counts as biochemical. The procedure, abridged: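 Inhibition is measured as reduced peptide phosphorylation by HTRF KinEASE-TK at 1 mM ATP and 250 nM substrate, 30 min at 22 °C. Values are IC50s from a 4-parameter logistic fit.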
Chain of EGFR (P00533 25-1210): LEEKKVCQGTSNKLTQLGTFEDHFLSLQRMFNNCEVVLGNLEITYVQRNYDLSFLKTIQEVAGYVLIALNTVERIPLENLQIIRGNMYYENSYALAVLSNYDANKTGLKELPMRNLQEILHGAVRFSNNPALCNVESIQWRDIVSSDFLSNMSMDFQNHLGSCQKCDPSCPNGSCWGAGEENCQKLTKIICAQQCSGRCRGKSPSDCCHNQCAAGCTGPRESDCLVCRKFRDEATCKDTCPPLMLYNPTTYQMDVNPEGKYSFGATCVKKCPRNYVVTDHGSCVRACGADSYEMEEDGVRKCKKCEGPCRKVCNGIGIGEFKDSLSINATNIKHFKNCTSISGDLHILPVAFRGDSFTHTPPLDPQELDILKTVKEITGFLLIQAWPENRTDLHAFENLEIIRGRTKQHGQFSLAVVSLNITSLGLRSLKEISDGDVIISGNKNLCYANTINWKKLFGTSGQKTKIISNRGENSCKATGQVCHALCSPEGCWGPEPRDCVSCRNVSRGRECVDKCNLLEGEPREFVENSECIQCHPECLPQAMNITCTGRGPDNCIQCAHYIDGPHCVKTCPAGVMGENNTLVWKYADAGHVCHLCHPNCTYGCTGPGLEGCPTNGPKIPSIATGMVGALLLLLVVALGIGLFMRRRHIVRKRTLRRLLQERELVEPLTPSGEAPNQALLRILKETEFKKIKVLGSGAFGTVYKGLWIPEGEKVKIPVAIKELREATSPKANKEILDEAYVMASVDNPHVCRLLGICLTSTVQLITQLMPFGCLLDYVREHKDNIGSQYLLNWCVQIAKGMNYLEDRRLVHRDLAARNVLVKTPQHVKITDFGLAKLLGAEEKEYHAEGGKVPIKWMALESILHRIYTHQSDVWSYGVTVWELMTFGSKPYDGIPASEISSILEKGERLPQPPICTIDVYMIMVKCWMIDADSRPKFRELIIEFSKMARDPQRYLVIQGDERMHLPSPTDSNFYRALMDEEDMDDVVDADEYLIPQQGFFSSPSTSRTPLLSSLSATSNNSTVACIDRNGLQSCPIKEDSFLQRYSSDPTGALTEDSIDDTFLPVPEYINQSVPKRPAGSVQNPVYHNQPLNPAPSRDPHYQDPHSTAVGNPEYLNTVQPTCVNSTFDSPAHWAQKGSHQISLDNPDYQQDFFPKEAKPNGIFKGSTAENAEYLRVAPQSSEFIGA
The target of assay [2] is ErbB2 with Exon 20 YVMA insertion (HER2-YVMA) (Homo sapiens (Human), UniProt P04626, INS775YVMA). Nature of the assay: Cellular phosphorylation assay, constitutive ErbB2 phosphorylation (Y1196) in engineered NIH 3T3 cells, Assay 4. It counts as cell-based. The procedure, abridged: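 Engineered NIH 3T3 cells expressing HER2-YVMA treated with compounds 1 h at 37 °C, then formaldehyde-fixed and methanol-permeabilized. pErbB2 Y1196 detected by in-cell infrared immunofluorescence, normalized to GAPDH. IC50 from the normalized curves.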
Chain of ErbB2 with Exon 20 YVMA insertion (HER2-YVMA) (P04626 other isoform, or with tags, fused parts or gaps ins YVMA behind 775): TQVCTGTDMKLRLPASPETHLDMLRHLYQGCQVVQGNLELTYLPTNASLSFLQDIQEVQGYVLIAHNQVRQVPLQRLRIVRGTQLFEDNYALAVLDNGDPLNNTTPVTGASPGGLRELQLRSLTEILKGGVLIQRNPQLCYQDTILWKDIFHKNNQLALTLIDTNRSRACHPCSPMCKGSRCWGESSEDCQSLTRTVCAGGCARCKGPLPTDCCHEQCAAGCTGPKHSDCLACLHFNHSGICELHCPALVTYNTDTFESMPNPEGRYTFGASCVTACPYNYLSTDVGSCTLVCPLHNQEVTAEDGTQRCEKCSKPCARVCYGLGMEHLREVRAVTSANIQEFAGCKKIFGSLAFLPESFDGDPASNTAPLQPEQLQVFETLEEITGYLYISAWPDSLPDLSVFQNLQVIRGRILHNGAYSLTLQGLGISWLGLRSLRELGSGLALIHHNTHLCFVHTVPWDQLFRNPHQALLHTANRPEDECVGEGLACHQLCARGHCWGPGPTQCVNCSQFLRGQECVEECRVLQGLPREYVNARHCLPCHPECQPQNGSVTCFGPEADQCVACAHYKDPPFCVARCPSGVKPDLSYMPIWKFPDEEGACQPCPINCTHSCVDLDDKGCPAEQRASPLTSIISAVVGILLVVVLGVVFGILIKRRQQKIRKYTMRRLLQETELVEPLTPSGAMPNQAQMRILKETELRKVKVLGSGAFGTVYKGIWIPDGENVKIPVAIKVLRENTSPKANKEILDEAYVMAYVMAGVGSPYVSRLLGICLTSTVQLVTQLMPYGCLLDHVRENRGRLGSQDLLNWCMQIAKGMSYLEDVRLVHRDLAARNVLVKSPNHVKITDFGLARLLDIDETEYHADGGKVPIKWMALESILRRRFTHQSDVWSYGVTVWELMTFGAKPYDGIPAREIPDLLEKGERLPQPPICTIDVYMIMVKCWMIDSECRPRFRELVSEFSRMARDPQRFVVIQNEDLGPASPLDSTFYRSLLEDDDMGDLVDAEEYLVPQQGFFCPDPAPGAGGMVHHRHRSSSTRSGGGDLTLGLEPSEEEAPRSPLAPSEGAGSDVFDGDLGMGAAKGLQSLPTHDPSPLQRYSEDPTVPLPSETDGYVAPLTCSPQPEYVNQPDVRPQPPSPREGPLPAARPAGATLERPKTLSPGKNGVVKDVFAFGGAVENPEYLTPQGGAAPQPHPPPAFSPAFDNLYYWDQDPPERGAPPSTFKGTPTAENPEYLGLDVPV

The target in the next assay is EGFR wild type (EGFR WT) (Homo sapiens (Human), UniProt P00533). In words: Cellular phosphorylation assay, EGF-stimulated EGFR phosphorylation in engineered NIH 3T3 cells, Phospho-EGFR DuoSet IC ELISA, Assay 5. It counts as cell-based. The procedure, abridged:
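NIH 3T3 cells expressing EGFR WT (20,000/well, attached overnight) were exposed to serially diluted compound for 1 h at 37 °C, then stimulated with 100 ng/ml rEGF for 10 min. Phospho-EGFR in lysates measured by sandwich ELISA optical density; IC50 from curves.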
(In general: An ELISA detects its analyte on a solid surface through an enzyme-linked reagent.)

Chain of EGFR wild type (EGFR WT) (P00533 25-1210): as the sequence (P00533 25-1210) above
Chain of ErbB2 WT (P04626 23-1255): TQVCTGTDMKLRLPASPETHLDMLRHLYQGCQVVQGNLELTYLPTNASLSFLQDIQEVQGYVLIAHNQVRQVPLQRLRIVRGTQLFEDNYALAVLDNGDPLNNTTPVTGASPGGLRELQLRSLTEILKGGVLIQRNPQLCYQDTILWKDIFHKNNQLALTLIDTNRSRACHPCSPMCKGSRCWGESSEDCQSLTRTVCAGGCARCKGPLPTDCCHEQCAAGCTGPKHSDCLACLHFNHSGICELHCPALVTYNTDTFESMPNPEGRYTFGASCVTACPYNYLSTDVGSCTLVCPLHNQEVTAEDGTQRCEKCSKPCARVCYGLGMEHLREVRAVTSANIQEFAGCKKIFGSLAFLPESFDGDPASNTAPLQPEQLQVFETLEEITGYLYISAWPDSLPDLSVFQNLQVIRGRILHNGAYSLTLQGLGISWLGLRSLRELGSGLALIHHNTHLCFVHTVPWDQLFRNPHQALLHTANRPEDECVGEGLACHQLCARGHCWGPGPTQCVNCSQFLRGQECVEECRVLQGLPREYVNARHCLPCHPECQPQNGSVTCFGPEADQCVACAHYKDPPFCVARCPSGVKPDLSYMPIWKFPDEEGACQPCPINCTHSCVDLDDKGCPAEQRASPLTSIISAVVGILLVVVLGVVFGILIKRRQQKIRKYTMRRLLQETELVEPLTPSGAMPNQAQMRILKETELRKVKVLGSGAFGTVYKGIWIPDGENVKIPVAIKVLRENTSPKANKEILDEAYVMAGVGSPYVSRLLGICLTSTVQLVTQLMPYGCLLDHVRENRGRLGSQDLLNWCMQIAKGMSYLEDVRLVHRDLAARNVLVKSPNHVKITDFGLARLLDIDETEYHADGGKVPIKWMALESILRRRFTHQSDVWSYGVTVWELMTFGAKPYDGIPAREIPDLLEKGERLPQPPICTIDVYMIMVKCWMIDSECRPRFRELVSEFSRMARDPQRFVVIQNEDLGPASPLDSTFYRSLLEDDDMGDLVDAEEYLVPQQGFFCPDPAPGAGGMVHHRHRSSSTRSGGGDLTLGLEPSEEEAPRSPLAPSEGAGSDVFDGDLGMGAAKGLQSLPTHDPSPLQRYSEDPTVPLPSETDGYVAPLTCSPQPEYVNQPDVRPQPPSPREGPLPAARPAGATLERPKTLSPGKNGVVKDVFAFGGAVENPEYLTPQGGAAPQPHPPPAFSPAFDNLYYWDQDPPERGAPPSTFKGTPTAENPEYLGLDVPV

As to `Cc1c(Oc2ccn3ncnc3c2)ccc(Nc2ncnc3cnc(N4CC[C@](C)(O)C4)nc23)c1F` [Example 307], the half-maximal inhibitory concentration (IC50) in assay [1] was 28.3 nM; on ErbB2 WT, 54.3 nM; against EGFR it was at least 10 µM; in assay [2], 1150 nM; against EGFR wild type (EGFR WT), at least 5 µM.

On to `Cc1c(Oc2ccn3ncnc3c2)ccc(Nc2ncnc3cnc(N4CC[C@@](C)(O)C4)nc23)c1F` [Example 308], for which the IC50 in assay [1] is 15.1 nM; on ErbB2 WT it was 28.8 nM; at EGFR, at least 10 µM; in assay [2] it was 492 nM; against EGFR wild type (EGFR WT) it was at least 5 µM.

With `Cc1c(Oc2ccn3ncnc3c2)ccc(Nc2ncnc3cnc(N4CC[C@H]4C(C)(C)O)nc23)c1F` [Example 309], the IC50 was 184 nM in assay [1]; 223 nM on ErbB2 WT; at least 10 µM on EGFR; 5000 nM in assay [2]; at least 5 µM against EGFR wild type (EGFR WT).

As to `Cc1c(Oc2ccn3ncnc3c2)ccc(Nc2ncnc3cnc(N4CC[C@H](O)C4)nc23)c1F` [Example 311], the concentration for half-maximal inhibition (IC50) is 75.3 nM in assay [1]; 76.3 nM on ErbB2 WT; at least 10 µM against EGFR; 3330 nM in assay [2]; at least 5 µM against EGFR wild type (EGFR WT).

Turning to `Cc1c(Oc2ccn3ncnc3c2)ccc(Nc2ncnc3cnc(N4CC[C@@H](O)C4)nc23)c1F` [Example 312], the half-inhibitory concentration (IC50) in assay [1] is 38.9 nM; at ErbB2 WT, 54.2 nM; at EGFR, at least 10 µM; in assay [2] it was 1590 nM; against EGFR wild type (EGFR WT), at least 5 µM.

Take `Cc1c(Oc2ccn3ncnc3c2)ccc(Nc2ncnc3cnc(N(C)CC4(O)CC4)nc23)c1F` [Example 314]: the IC50 was 29.8 nM in assay [1]; 88.1 nM on ErbB2 WT; 6.08 µM against EGFR; 2020 nM in assay [2]; at least 5 µM at EGFR wild type (EGFR WT).

Turning to `Cc1c(Oc2ccn3ncnc3c2)ccc(Nc2ncnc3cnc(N(C)CC4(O)CCC4)nc23)c1F` [Example 315], the IC50 is 39.3 nM in assay [1]; 64.8 nM on ErbB2 WT; 3.69 µM against EGFR; 1490 nM in assay [2]; at least 5 µM at EGFR wild type (EGFR WT).

`Cc1c(Oc2ccn3ncnc3c2)ccc(Nc2ncnc3cnc(N4C[C@@H](O)C(F)(F)C4)nc23)c1F` [Example 316]: the IC50 in assay [1] is 52.2 nM; at ErbB2 WT, 111 nM; against EGFR, 5.04 µM; in assay [2], 1320 nM; against EGFR wild type (EGFR WT), at least 5 µM.

In the case of `Cc1c(Oc2ccn3ncnc3c2)ccc(Nc2ncnc3cnc(N(C)CC(F)F)nc23)c1F` [Example 317], the 50% inhibitory concentration (IC50) in assay [1] was 18.1 nM; against ErbB2 WT, 101 nM; against EGFR, at least 10 µM; in assay [2] it was 402 nM; at EGFR wild type (EGFR WT), at least 5 µM.

For the compound `Cc1c(Oc2ccn3ncnc3c2)ccc(Nc2ncnc3cnc(N[C@H]4CNC[C@H]4F)nc23)c1F` [Example 318], the IC50 was 125 nM in assay [1]; 88 nM at ErbB2 WT; 4.33 µM at EGFR; 928 nM in assay [2]; at least 5 µM on EGFR wild type (EGFR WT).

On to `Cc1c(Oc2ccn3ncnc3c2)ccc(Nc2ncnc3cnc(N(C)[C@H]4CN(C)C[C@H]4F)nc23)c1F` [Example 320], for which the IC50 in assay [1] is 12.7 nM; against ErbB2 WT, 36 nM; at EGFR, 2.34 µM; in assay [2] it was 271 nM; on EGFR wild type (EGFR WT), at least 5 µM.

For the compound `COC[C@H]1CCN1c1ncc2ncnc(Nc3ccc(Oc4ccn5ncnc5c4)c(Cl)c3)c2n1` [Example 321], the concentration for half-maximal inhibition (IC50) in assay [1] was 12.9 nM; against ErbB2 WT, 65.7 nM; against EGFR, 4.34 µM; in assay [2] it was 72 nM; against EGFR wild type (EGFR WT), at least 5 µM.

Consider `Clc1cc(Nc2ncnc3cnc(N4C5CCC4COC5)nc23)ccc1Oc1ccn2ncnc2c1` [Example 322], for which the IC50 is 21.6 nM in assay [1]; 62.1 nM against ErbB2 WT; at least 10 µM against EGFR; 102 nM in assay [2]; at least 5 µM against EGFR wild type (EGFR WT).

For `O[C@@H]1CN(c2ncc3ncnc(Nc4ccc(Oc5ccn6ncnc6c5)c(Cl)c4)c3n2)CC1(F)F` [Example 323], the IC50 is 12.2 nM in assay [1]; 75.4 nM against ErbB2 WT; 9.72 µM on EGFR; 59.9 nM in assay [2]; at least 5 µM on EGFR wild type (EGFR WT).

As for `CC1(O)CN(c2ncc3ncnc(Nc4ccc(Oc5ccn6ncnc6c5)c(Cl)c4)c3n2)C1` [Example 324], the concentration for half-maximal inhibition (IC50) in assay [1] was 64.4 nM; against ErbB2 WT, 119 nM; on EGFR, at least 10 µM; in assay [2] it was 124 nM; against EGFR wild type (EGFR WT), at least 5 µM.

In the case of `COC[C@H](O)CN(C)c1ncc2ncnc(Nc3ccc(Oc4ccn5ncnc5c4)c(Cl)c3)c2n1` [Example 325], the IC50 in assay [1] is 27.5 nM; at ErbB2 WT, 45.3 nM; against EGFR it was 4.88 µM; in assay [2], 166 nM; against EGFR wild type (EGFR WT), at least 5 µM.

For the compound `OC1(CNc2ncc3ncnc(Nc4ccc(Oc5ccn6ncnc6c5)c(Cl)c4)c3n2)COC1` [Example 326], the half-inhibitory concentration (IC50) is 14.4 nM in assay [1]; 32.6 nM on ErbB2 WT; 2.34 µM on EGFR; 32.1 nM in assay [2]; at least 5 µM on EGFR wild type (EGFR WT).

Consider `C[C@H]1CN(c2ncc3ncnc(Nc4ccc(Oc5ccn6ncnc6c5)c(Cl)c4)c3n2)CCO1` [Example 327], for which the IC50 was 20.8 nM in assay [1]; 32.1 nM at ErbB2 WT; 3.82 µM against EGFR; 105 nM in assay [2]; at least 5 µM against EGFR wild type (EGFR WT).

`COC[C@@H]1CCN1c1ncc2ncnc(Nc3ccc(Oc4ccn5ncnc5c4)c(Cl)c3)c2n1` [Example 328]: the IC50 in assay [1] was 17.9 nM; at ErbB2 WT, 105 nM; on EGFR, at least 10 µM; in assay [2], 306 nM; on EGFR wild type (EGFR WT) it was at least 5 µM.

Regarding `CN(CC1(O)CCC1)c1ncc2ncnc(Nc3ccc(Oc4ccn5ncnc5c4)c(Cl)c3)c2n1` [Example 329], the IC50 is 19.8 nM in assay [1]; 37.7 nM against ErbB2 WT; 5.06 µM on EGFR; 85.2 nM in assay [2]; at least 5 µM against EGFR wild type (EGFR WT).

In the case of `CC1(C)CN(c2ncc3ncnc(Nc4ccc(Oc5ccn6ncnc6c5)c(Cl)c4)c3n2)CCO1` [Example 330], the 50% inhibitory concentration (IC50) in assay [1] was 34.3 nM; against ErbB2 WT, 72.6 nM; against EGFR it was 8.51 µM; in assay [2], 197 nM; on EGFR wild type (EGFR WT), at least 5 µM.

Regarding `O[C@@H]1C[C@H]2C[C@@H]1CN2c1ncc2ncnc(Nc3ccc(Oc4ccn5ncnc5c4)c(Cl)c3)c2n1` [Example 332], the 50% inhibitory concentration (IC50) in assay [1] was 48.6 nM; against ErbB2 WT, 50.5 nM; at EGFR it was at least 10 µM; in assay [2], 186 nM; at EGFR wild type (EGFR WT), at least 5 µM.

As for `O[C@@H]1C[C@@H]2C[C@H]1CN2c1ncc2ncnc(Nc3ccc(Oc4ccn5ncnc5c4)c(Cl)c3)c2n1` [Example 333], the IC50 in assay [1] is 11.9 nM; at ErbB2 WT, 23.2 nM; against EGFR, 2.23 µM; in assay [2] it was 82.1 nM; at EGFR wild type (EGFR WT), at least 5 µM.

Take `O[C@H]1C[C@@H]2C[C@H]1CN2c1ncc2ncnc(Nc3ccc(Oc4ccn5ncnc5c4)c(Cl)c3)c2n1` [Example 334]: the IC50 was 20.4 nM in assay [1]; 55.7 nM on ErbB2 WT; 1.65 µM against EGFR; 266 nM in assay [2]; at least 5 µM at EGFR wild type (EGFR WT).

As to `O[C@H]1C[C@H]2C[C@@H]1CN2c1ncc2ncnc(Nc3ccc(Oc4ccn5ncnc5c4)c(Cl)c3)c2n1` [Example 335], the IC50 in assay [1] was 15.7 nM; against ErbB2 WT, 24.1 nM; on EGFR it was 4.11 µM; in assay [2], 143 nM; at EGFR wild type (EGFR WT), at least 5 µM.

For `O[C@H]1[C@@H]2C[C@H]1CN(c1ncc3ncnc(Nc4ccc(Oc5ccn6ncnc6c5)c(Cl)c4)c3n1)C2` [Example 336], the IC50 in assay [1] was 54 nM; at ErbB2 WT, 130 nM; on EGFR it was at least 10 µM; in assay [2], 2260 nM; against EGFR wild type (EGFR WT), at least 5 µM.

For the compound `CC1(C)CN(c2ncc3ncnc(Nc4ccc(Oc5ccn6ncnc6c5)c(Cl)c4)c3n2)CC[C@@H]1O` [Example 337], the IC50 in assay [1] is 17 nM; against ErbB2 WT, 13.3 nM; on EGFR it was 2.49 µM; in assay [2] it was 70.3 nM; at EGFR wild type (EGFR WT), at least 5 µM.

`O[C@H]1CN(c2ncc3ncnc(Nc4ccc(Oc5ccn6ncnc6c5)c(Cl)c4)c3n2)CC[C@@H]1F` [Example 338]: the 50% inhibitory concentration (IC50) in assay [1] was 13.2 nM; against ErbB2 WT, 12.8 nM; on EGFR it was 1.99 µM; in assay [2], 65.2 nM; against EGFR wild type (EGFR WT) it was at least 5 µM.

`CC1(C)CN(c2ncc3ncnc(Nc4ccc(Oc5ccn6ncnc6c5)c(Cl)c4)c3n2)C[C@H]1O` [Example 339]: the 50% inhibitory concentration (IC50) is 47.2 nM in assay [1]; 71.4 nM on ErbB2 WT; 5.24 µM at EGFR; 587 nM in assay [2]; at least 5 µM on EGFR wild type (EGFR WT).
